Results taken from the OPERA property sets (Mansouri et al. 2018).
Values after ≈ are worked out from the molar mass of the structure shown.

Conditions: not given

Question: Which solubility does the source give for `C=C1C=CC(=O)O1` here?
Answer: The solubility was 104 mM (≈ 10000 µg/mL).

Question: Which solubility does the source give for `CCOCCOC(=O)C=Cc1ccc(OC)cc1` here?
Answer: The solubility was 2 mM (≈ 500 µg/mL).

Question: Which solubility does the source give for `O=C(O)CCC(=O)OOC(=O)CCC(=O)O` here?
Answer: Its solubility is 142 mM (≈ 33300 µg/mL).

Question: Which solubility does the source give for `CCCCOC(=O)C=Cc1ccccc1` here?
Answer: Its solubility is 24.5 mM (≈ 5000 µg/mL).

Question: With `OC[C@H]1O[C@@H](n2cnc3cncnc32)[C@H](O)[C@@H]1O` as the compound, how does the solubility read?
Answer: Its solubility is 396 mM (≈ 100000 µg/mL).

Question: Which solubility does the source give for `C#CC(C)(CC)OC(N)=O` (stereo not given) here?
Answer: Its solubility is 113 mM (≈ 16000 µg/mL).

Question: Which solubility does the source give for `COc1cc(O)c(C(=O)c2ccccc2)cc1S(=O)(=O)O` here?
Answer: The solubility was 811 mM (≈ 250000 µg/mL).

Question: For `O=C(NCN1CCOCC1)c1cnccn1`, which solubility is on record?
Answer: Its solubility is 1500 mM (≈ 333000 µg/mL).

Same assay, conditions: 22 °C

Question: Which solubility does the source give for `CC(=O)NCc1c(I)c(NC(C)=O)c(I)c(C(=O)O)c1I` here?
Answer: Its solubility is 4.78 mM (≈ 3000 µg/mL).

Same assay, conditions: 25 °C

Question: With `CC(C)(C)CC(=O)OCC(=O)[C@@]12OC(C)(C)O[C@@H]1C[C@H]1[C@@H]3CCC4=CC(=O)C=C[C@]4(C)[C@@]3(F)[C@@H](O)C[C@@]12C` as the compound, how does the solubility read?
Answer: Its solubility is 0.00751 mM (≈ 4 µg/mL).

Question: For `O=C(N/N=C/c1ccccc1O)c1ccncc1`, which solubility is on record?
Answer: The solubility was 0.207 mM (≈ 50 µg/mL).

Question: With `O=NN(CCCl)C(=O)NCCCl` as the compound, how does the solubility read?
Answer: The solubility was 18.7 mM (≈ 4000 µg/mL).

Question: For `Nc1ccc(S(=O)(=O)Nc2ccnn2-c2ccccc2)cc1`, which solubility is on record?
Answer: The solubility was 4.77 mM (≈ 1500 µg/mL).

Question: For `NCCNc1cccc2ccccc12`, which solubility is on record?
Answer: The solubility was 10.7 mM (≈ 2000 µg/mL).

Question: For `O=Nc1c(O)ccc2ccccc12`, which solubility is on record?
Answer: Its solubility is 5.77 mM (≈ 1000 µg/mL).
